Read-outs that look alike come from different tables or passages of the source. A value given as a limit tells only on which side of the number the result lay.

Assay [1] relates to phosphorylated AKT Ser473 (pAKT S473), mTORC2 activity, PC3 cells. Kind of assay: mTOR target engagement assay, immunofluorescent cell-based, pAKT S473 readout (mTORC2 activity). Put shortly: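 After blocking, cells were stained overnight at 4 °C with anti-pAKT S473 antibody, then a fluorescent secondary; inhibition was read as reduced fluorescence intensity.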
For assay [2], the system named is phosphorylated 4E-BP1 Thr37/46 (p4E-BP1 Thr37/46), mTORC1 activity, PC3 cells. Kind of assay: mTOR target engagement assay, immunofluorescent cell-based, p4E-BP1 Thr37/46 readout (mTORC1 activity). The conditions noted are these: read-out: p4E-BP1 Thr37/46 IC50. The method in brief:
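Seed PC3 cells overnight; treat with compound dilutions for ninety minutes at 37° C; fix with glyoxal and block; stain with anti-p4E-BP1 Thr37/46 overnight at 4° C, then fluorescent secondary; read fluorescence and fit IC50 against DMSO-only controls.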

The mark [3] stands for this setting: Homo sapiens, PC-3, Table 3-1, PC3 cells.
The mark [4] stands for this setting: Homo sapiens, PC-3, Table 6-1, PC3 cells.
The mark [5] stands for this setting: Homo sapiens, PC-3, PC3 cells, compound treatment ninety minutes at 37° C.
Setting [6] is: Homo sapiens, PC-3, Table 7-8, PC3 cells.

Take `CCNC(=O)N1[C@@H]2CC[C@H]1C[C@H](c1nc3c(-c4ccc(-c5ccccc5)nc4)cnn3c(N)c1S(C)(=O)=O)C2` [Compound 3.8, (1R,3s,5S)-3-(7-amino-6-(methylsulfonyl)-3-(6-phenylpyridin-3-yl)pyrazolo[1,5-a]pyrimidin-5-yl)-N-ethyl-8-azabicyclo[3.2.1]octane-8-carboxamide]: the IC50 in assay [1] (setting [3]) and in assay [2] (setting [3]) was 100 to 1000 nM each time.
Turning to `CS(=O)(=O)c1c([C@@H]2C[C@H]3CC[C@@H](C2)N3C(=O)CO)nc2c(-c3ccc(-c4ncc[nH]4)cc3)cnn2c1N` [Compound 6.35, 1-((1R,3s,5S)-3-(3-(4-(1H-imidazol-2-yl)phenyl)-7-amino-6-(methylsulfonyl)pyrazolo [1,5-a]pyrimidin-5-yl)-8-azabicyclo[3.2.1]octan-8-yl)-2-hydroxyethanone], the IC50 in assay [1] (setting [4]) was 1 to 100 nM; in assay [2] (setting [4]), 100 to 1000 nM.
Consider `CC(=O)c1c([C@@H]2C[C@H]3CC(O)[C@@H](C2)N3C(=O)c2nc[nH]n2)nc2c(-c3ccc(-c4ccccc4)nc3)cnn2c1N` (stereo partly drawn) [Compound 8.34, 1-(7-amino-5-((1S,3R,5R)-6-hydroxy-8-(1H-1,2,4-triazole-3-carbonyl)-8-azabicyclo[3.2.1]octan-3-yl)-3-(6-phenylpyridin-3-yl)pyrazolo[1,5-a]pyrimidin-6-yl)ethanone], for which the IC50 in assay [1] (Homo sapiens, PC-3, PC3 cells) was in the range of 1 to 100 nM; in assay [2] (Homo sapiens, PC-3, PC3 cells) it was 1 to 100 nM.
Take `CS(=O)(=O)c1c([C@H]2CC3CC[C@H](C2)N3C(=O)c2nnc[nH]2)nc2c(-c3ccc(C4CCCC4)nc3)cnn2c1N` [Compound 3.166, ((1R,3s,5S)-3-(7-amino-3-(6-cyclopentylpyridin-3-yl)-6-(methylsulfonyl)pyrazolo[1,5-a]pyrimidin-5-yl)-8-azabicyclo[3.2.1]octan-8-yl)(4H-1,2,4-triazol-3-yl)methanone]: the IC50 in assay [1] (setting [3]) and in assay [2] (setting [3]) was 100 to 1000 nM throughout.
Turning to `COCc1c([C@@H]2C[C@H]3CC[C@@H](C2)N3C(=O)c2nnc[nH]2)nc2c(-c3ccc(-c4ccc(OC)cc4)nc3)cnn2c1N` [Compound 5.6, ((1R,3s,5S)-3-(7-amino-6-(methoxymethyl)-3-(6-(4-methoxyphenyl)pyridin-3-yl)pyrazolo[1,5-a]pyrimidin-5-yl)-8-azabicyclo[3.2.1]octan-8-yl)(4H-1,2,4-triazol-3-yl)methanone], the IC50 in assay [1] (setting [5]) and in assay [2] (setting [5]) was 1 to 100 nM in each case.
Regarding `COc1ccc(-c2ccc(-c3cnn4c(N)c(S(C)(=O)=O)c([C@@H]5C[C@H]6CC[C@@H](C5)N6C(=O)c5nnc[nH]5)nc34)cn2)c(F)c1F` [Compound 3.54, ((1R,3s,5S)-3-(7-amino-3-(6-(2,3-difluoro-4-methoxyphenyl)pyridin-3-yl)-6-(methylsulfonyl)pyrazolo[1,5-a]pyrimidin-5-yl)-8-azabicyclo[3.2.1]octan-8-yl)(4H-1,2,4-triazol-3-yl)methanone], the IC50 in assay [1] (setting [3]) and in assay [2] (setting [3]) was 1 to 100 nM each time.
Take `COc1ccc(-c2ccc(-c3cnn4c(N)c(C5CC5)c([C@@H]5C[C@H]6CC[C@@H](C5)N6C(=O)c5nnc[nH]5)nc34)cn2)c(F)c1F` [Compound 4.10, ((1R,3a,5S)-3-(7-amino-6-cyclopropyl-3-(6-(2,3-difluoro-4-methoxyphenyl)pyridin-3-yl)pyrazolo[1,5-a]pyrimidin-5-yl)-8-azabicyclo[3.2.1]octan-8-yl)(4H-1,2,4-triazol-3-yl)methanone]: the IC50 in assay [1] (setting [5]) and in assay [2] (setting [5]) was 1 to 100 nM in each case.
On to `COc1ccc(-c2ccc(-c3cnn4c(N)c(S(C)(=O)=O)c([C@@H]5C[C@H]6CC[C@@H](C5)N6C(=O)c5nnc[nH]5)nc34)cn2)cn1` [Compound 3.164, ((1R,3s,5S)-3-(7-amino-3-(6′-methoxy-2,3′-bipyridin-5-yl)-6-(methylsulfonyl)pyrazolo[1,5-a]pyrimidin-5-yl)-8-azabicyclo[3.2.1]octan-8-yl)(4H-1,2,4-triazol-3-yl)methanone], for which the IC50 in assay [1] (setting [3]) and in assay [2] (setting [3]) was 100 to 1000 nM each time.
As to `CC(=O)c1c([C@@H]2C[C@H]3CC[C@@H](C2)N3C(=O)c2nnc[nH]2)nc2c(-c3cnc4c(c3)CCCC4O)cnn2c1N` (stereo partly drawn) [Compound 7.59, 1-(5-((1R,3s,5S)-8-(4H-1,2,4-triazole-3-carbonyl)-8-azabicyclo[3.2.1]octan-3-yl)-7-amino-3-(8-hydroxy-5,6,7,8-tetrahydroquinolin-3-yl)pyrazolo[1,5-a]pyrimidin-6-yl)ethanone], the IC50 in assay [1] (PC3 cells) lay in the range of 100 to 1000 nM; in assay [2] (PC3 cells), 1 to 100 nM.
On to `CS(=O)(=O)c1c([C@@H]2C[C@H]3CC[C@@H](C2)N3C(=O)c2nnc[nH]2)nc2c(-c3cnn(-c4ccccn4)c3)cnn2c1N` [Compound 3.123, ((1R,3s,5S)-3-(7-amino-6-(methylsulfonyl)-3-(1-(pyridin-2-yl)-1H-pyrazol-4-yl)pyrazolo[1,5-a]pyrimidin-5-yl)-8-azabicyclo[3.2.1]octan-8-yl)(4H-1,2,4-triazol-3-yl)methanone], for which the IC50 in assay [1] (setting [3]) and in assay [2] (setting [3]) was 100 to 1000 nM in each case.
In the case of `CS(=O)(=O)c1c([C@H]2CC3CC[C@H](C2)N3C(=O)c2nnc[nH]2)nc2c(-c3cnc4c(c3)CCCC4O)cnn2c1N` (stereo partly drawn) [Compound 7.53, ((1R,3s,5S)-3-(7-amino-3-(8-hydroxy-5,6,7,8-tetrahydroquinolin-3-yl)-6-(methylsulfonyl)pyrazolo [1,5-a]pyrimidin-5-yl)-8-azabicyclo[3.2.1]octan-8-yl)(4H-1,2,4-triazol-3-yl)methanone], the IC50 in assay [1] (Homo sapiens, PC-3, PC3 cells) is 100 to 1000 nM; in assay [2] (Homo sapiens, PC-3, PC3 cells), 100 to 1000 nM.
Consider `N#Cc1ncc(-c2cnn3c(N)c(C4CC4)c([C@@H]4C[C@H]5CC[C@@H](C4)N5C(=O)c4nnc[nH]4)nc23)cn1` [Compound 8.96, 5-(5-((1R,3s,5S)-8-(4H-1,2,4-triazole-3-carbonyl)-8-azabicyclo[3.2.1]octan-3-yl)-7-amino-6-cyclopropylpyrazolo[1,5-a]pyrimidin-3-yl)pyrimidine-2-carbonitrile], for which the IC50 lay within 1000 to 10000 nM in assay [1] (Homo sapiens, PC-3, PC3 cells) and 1000 to 10000 nM in assay [2] (Homo sapiens, PC-3, PC3 cells).
In the case of `CS(=O)(=O)c1c([C@@H]2C[C@H]3CC[C@@H](C2)N3C(=O)CO)nc2c(-c3ccc(C(O)C(F)(F)F)nc3)cnn2c1N` (stereo partly drawn) [Compound 7.70, 1-((1R,3s,5S)-3-(7-amino-6-(methylsulfonyl)-3-(6-(2,2,2-trifluoro-1-hydroxyethyl)pyridin-3-yl)pyrazolo[1,5-a]pyrimidin-5-yl)-8-azabicyclo[3.2.1]octan-8-yl)-2-hydroxyethanone], the IC50 in assay [1] (Homo sapiens, PC-3, PC3 cells) was 1000 to 10000 nM; in assay [2] (Homo sapiens, PC-3, PC3 cells), 1000 to 10000 nM.
With `CC(=O)c1c([C@@H]2C[C@H]3CC[C@@H](C2)N3C(=O)c2nnc[nH]2)nc2c(-c3ccc(C4(O)COC4)nc3)cnn2c1N` [Compound 7.45, 1-(5-((1R,3s,5S)-8-(4H-1,2,4-triazole-3-carbonyl)-8-azabicyclo[3.2.1]octan-3-yl)-7-amino-3-(6-(3-hydroxyoxetan-3-yl)pyridin-3-yl)pyrazolo[1,5-a]pyrimidin-6-yl)ethanone], the IC50 in assay [1] (setting [6]) and in assay [2] (setting [6]) was 100 to 1000 nM throughout.
For the compound `CS(=O)(=O)c1c([C@@H]2C[C@H]3CC[C@@H](C2)N3C(=O)c2nnc[nH]2)nc2c(-c3ccc(C(N)=O)c(F)c3)cnn2c1N` [Compound 3.155, 4-(5-((1R,3s,5S)-8-(4H-1,2,4-triazole-3-carbonyl)-8-azabicyclo[3.2.1]octan-3-yl)-7-amino-6-(methylsulfonyl)pyrazolo[1,5-a]pyrimidin-3-yl)-2-fluorobenzamide], the IC50 in assay [1] (setting [3]) is more than 10000 nM; in assay [2] (setting [3]), 1000 to 10000 nM.
With `CC(=O)c1c([C@@H]2C[C@H]3CC[C@@H](C2)N3C(=O)c2nnc[nH]2)nc2c(-c3cnc(-c4ccn(C)n4)c(F)c3)cnn2c1N` [Compound 1.1.112, 1-(5-((1R,3s,5S)-8-(4H-1,2,4-triazole-3-carbonyl)-8-azabicyclo[3.2.1]octan-3-yl)-7-amino-3-(5-fluoro-6-(1-methyl-1H-pyrazol-3-yl)pyridin-3-yl)pyrazolo[1,5-a]pyrimidin-6-yl)ethanone], the IC50 in assay [1] (setting [5]) and in assay [2] (setting [5]) was 1000 to 10000 nM in each case.
With `CC(=O)c1c([C@@H]2C[C@H]3CC[C@@H](C2)N3C(=O)c2ccn[nH]2)nc2c(-c3ccc(-c4ccc(F)cc4F)nc3)cnn2c1N` [Compound 1.1.167, 1-(5-((1R,3s,5S)-8-(1H-pyrazole-5-carbonyl)-8-azabicyclo[3.2.1]octan-3-yl)-7-amino-3-(6-(2,4-difluorophenyl)pyridin-3-yl)pyrazolo[1,5-a]pyrimidin-6-yl)ethanone], the IC50 fell in the range of 1 to 100 nM in assay [1] (setting [5]) and 100 to 1000 nM in assay [2] (setting [5]).
As to “1-((1R,3s,5S)-3-(7-amino-3-(6-(4-methoxy-(D3)-phenyl)pyridin-3-yl)-6-(methylsulfonyl)pyrazolo[1,5-a]pyrimidin-5-yl)-8-azabicyclo[3.2.1]octan-8-yl)-2-hydroxyethanone [Compound 3.67]”, the IC50 in assay [1] (Table 3-1, PC3 cells) was in the range of 1 to 100 nM; in assay [2] (Table 3-1, PC3 cells) it was 100 to 1000 nM.
